Publication PMC9578396, “Intrinsic Antibacterial Activity of Xeruborbactam In Vitro: Assessing Spectrum and Mode of Action” (Antimicrobial Agents and Chemotherapy, 2022)
In brackets after ≈: the same amount, converted by molar mass. Where two headings read alike, the source gives them in different places.

What was measured:
[1] = molecular target: T1, PBP1a (Pseudomonas aeruginosa, UniProt Q07806); experiment: Gel-based Bocillin FL competition PBP binding assay; conditions: P. aeruginosa PAM3034 membranes; Bocillin FL step 0°C for xeruborbactam, 30°C for beta-lactams; read-out: Relative binding IC50, PBP1a
T1 construct: endogenous in cells
Procedure: (§1) Ten milliliters of overnight bacterial culture was inoculated in 1 L of LB medium and grown to an OD600 of 0.7 to 0.9. The cell pellet was washed once with 50 mL of solution containing 100 mM Na-phosphate at pH 7.0 and 100 mM NaCl and resuspended in 10 mL of the same buffer with one tablet of EDTA-free mini-protease inhibitor and 10 mg of lysozyme. Cell suspensions were incubated for 45 min at 37°C, and then 200 μL of DNase I was added along with MgSO4 (to a final concentration of 10 mM), followed by three cycles of freeze-thawing (10 min and 20 min, respectively). Four cycles of sonication at maximum power were performed next, each cycle lasting for 30 s with 1 min on ice between cycles. The cell suspension was centrifuged at 12,000 × g for 10 min at 4°C. The supernatant was collected and centrifuged at 100,000 × g for 45 min at 4°C. The pellet was washed three times with 10 mL of 100 mM Na-phosphate, pH 7.0, by resuspension and subsequent centrifugation at 100,000 × g for 10 min at 4°C. The pellet was finally resuspended in 1.5 mL of 100 mM Na-phosphate, pH 7.0, and passed several times through a Dounce homogenizer (tight pestle). Membrane preparations were aliquoted and kept at −80°C.
(§2) Five microliters of total bacterial membrane preparation was mixed with 5 μL of a test compound at a desired concentration in 100 mM Na-phosphate buffer, pH 7.0. Incubation of bacterial membrane preparations with control beta-lactams was performed for 10 min at 30°C; xeruborbactam was incubated with membrane preparations for 1 h at 30°C. Five microliters of 150 μM Bocillin FL fluorescent probe (Thermo Fisher Scientific) was added, and the reaction mixture was incubated for an additional 10 min at 30°C in the case of beta-lactams or for 20 min on ice (0°C) in the case of xeruborbactam. […] At the end of the incubation step, 15 μL of 2× SDS sample loading buffer was added, and the reaction mixture was incubated for 5 min at 95°C. Twenty-five microliters of the reaction mixture was then loaded on an 8% SDS Tris-glycine gel (Thermo Fisher Scientific). At the end of the run, the gel was briefly rinsed with water and fixed in 10% acetic acid, 40% methanol for 20 min. After an additional wash in water for 30 min, the gel was scanned on a Typhoon Trio+ Imager using a blue laser filter (excitation, 488 nm, and emission, 520 nm). Densitometry of the gel images was performed using ImageQuant software (Molecular Dynamics). IC50 values were calculated with Prism software (GraphPad).

[2] = molecular target: PBP1a (Klebsiella pneumoniae, UniProt A0A0H3GZF1); set-up: method as in PMID 29712652; conditions: read-out: IC50, PBP1a; value in parentheses; K. pneumoniae ATCC 43816; cited from earlier work
[3] = molecular target: PBP2 (Klebsiella pneumoniae, UniProt A6T696); set-up: method as in PMID 29712652; conditions: read-out: IC50, PBP2; value in parentheses; K. pneumoniae ATCC 43816; cited from earlier work
[4] = molecular target: PBP3 (Klebsiella pneumoniae, UniProt A0A0H3GN85); set-up: method as in PMID 29712652; conditions: read-out: IC50, PBP3; value in parentheses; K. pneumoniae ATCC 43816; cited from earlier work
[5] = molecular target: PBP3 (Acinetobacter baumannii, UniProt A0ABX6CK25); set-up: method as in earlier work; conditions: read-out: IC50, PBP3; value in parentheses; A. baumannii ATCC 19606; cited from earlier work
[6] = molecular target: T1, PBP1a; set-up: method as in PMID 18250190; conditions: value in parentheses; P. aeruginosa PAO1; cited from earlier work
[7] = molecular target: T2, PBP2 (Pseudomonas aeruginosa, UniProt Q9X6V3); set-up: method as in PMID 18250190; conditions: value in parentheses; P. aeruginosa PAO1; cited from earlier work
T2 construct: Five microliters of total bacterial membrane preparation was mixed with 5 μL of a test compound; endogenous in cells

[8] = test system: strain ECM5497 of E. coli; experiment: Minimal bactericidal concentration (MBC), E. coli; type: cell-based; conditions: Escherichia coli
[9] = molecular target: T2, PBP2; experiment: Gel-based Bocillin FL competition PBP binding assay; conditions: P. aeruginosa PAM3034 membranes; Bocillin FL step 0°C for xeruborbactam, 30°C for beta-lactams; read-out: Relative binding IC50, PBP2
Procedure: as §1, §2

[10] = molecular target: T3, PBP3 (Pseudomonas aeruginosa, UniProt G3XD46); experiment: as above; conditions: P. aeruginosa PAM3034 membranes; Bocillin FL step 0°C for xeruborbactam, 30°C for beta-lactams; read-out: Relative binding IC50, PBP3
T3 construct: endogenous in cells
Procedure: as §1, §2

[11] = test system: A. baumannii strain AB1007; conditions: xeruborbactam at ≥2× MIC, 48 h at 37°C
Procedure: (§3) Beta-lactamase-negative strains of E. coli (strain ECM5497), A. baumannii (strain AB1007), and K. pneumoniae (strain KPM1026a) were used in resistance development studies. […] […] Single colonies from xeruborbactam-containing plates were grown twice on a nonselective medium before their antimicrobial-resistance levels were assessed. For K. pneumoniae KPM1026a, several independent cultures were used in resistance studies.

[12] = test system: E. coli strain ECM5497; conditions: xeruborbactam at ≥2× MIC, 48 h at 37°C
Procedure: as §3

[13] = test system: P. aeruginosa strain PAM1154; experiment: Fluorescence microscopy, cellular morphology; type: cell-based, Pseudomonas aeruginosa; conditions: treated at 1× or 2× MIC
Procedure: Single colonies of K. pneumoniae strain KPM1026a, A. baumannii strain ATCC 17978, and P. aeruginosa strain PAM1154 were picked from LB agar plates, inoculated in cation-adjusted Mueller-Hinton broth (CA-MHB), and incubated overnight at 30°C with rolling. Overnight cultures were diluted into fresh CA-MHB and incubated at 30°C, with rolling, until they reached an OD600 of ≈0.12 to 0.15 (equivalent to ~2 × 10^8 CFU/mL). Samples were then treated with compounds and incubated at 30°C, with rolling. After 1 or 2 h of treatment, cells were collected and stained with a dye mix containing FM4-64 (1 μg/mL), DAPI (4′,6-diamidino-2-phenylindole) (2 μg/mL), and SYTOX green (0.5 μM) (Molecular Probes, Invitrogen, or Thermo Fisher Scientific). Cells were transferred onto an agarose pad containing 1.2% agarose and 20% LB medium for microscopy. Microscopy was performed as previously described ([34]).

T1 sequence (Q07806 whole entry): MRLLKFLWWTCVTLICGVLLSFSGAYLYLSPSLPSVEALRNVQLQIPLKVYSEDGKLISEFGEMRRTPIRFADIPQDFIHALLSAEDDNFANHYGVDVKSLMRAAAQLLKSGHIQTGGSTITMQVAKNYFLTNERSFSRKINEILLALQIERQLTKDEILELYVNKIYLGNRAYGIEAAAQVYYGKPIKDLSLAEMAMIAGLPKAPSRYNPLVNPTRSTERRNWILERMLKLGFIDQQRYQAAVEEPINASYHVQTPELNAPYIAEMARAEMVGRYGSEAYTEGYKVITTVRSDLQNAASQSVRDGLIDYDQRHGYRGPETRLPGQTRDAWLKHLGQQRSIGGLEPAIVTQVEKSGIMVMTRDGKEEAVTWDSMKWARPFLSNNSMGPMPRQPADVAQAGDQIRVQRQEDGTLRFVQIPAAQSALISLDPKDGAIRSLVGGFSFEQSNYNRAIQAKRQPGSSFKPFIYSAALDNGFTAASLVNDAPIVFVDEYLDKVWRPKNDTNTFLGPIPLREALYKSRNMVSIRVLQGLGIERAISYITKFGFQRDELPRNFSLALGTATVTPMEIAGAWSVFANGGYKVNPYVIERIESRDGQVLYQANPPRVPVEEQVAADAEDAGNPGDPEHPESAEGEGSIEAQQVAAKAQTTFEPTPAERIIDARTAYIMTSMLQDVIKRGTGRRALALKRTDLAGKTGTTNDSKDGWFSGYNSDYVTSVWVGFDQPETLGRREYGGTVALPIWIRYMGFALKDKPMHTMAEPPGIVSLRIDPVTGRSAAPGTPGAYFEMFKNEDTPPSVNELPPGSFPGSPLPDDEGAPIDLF
T2 sequence (Q9X6V3 1-646): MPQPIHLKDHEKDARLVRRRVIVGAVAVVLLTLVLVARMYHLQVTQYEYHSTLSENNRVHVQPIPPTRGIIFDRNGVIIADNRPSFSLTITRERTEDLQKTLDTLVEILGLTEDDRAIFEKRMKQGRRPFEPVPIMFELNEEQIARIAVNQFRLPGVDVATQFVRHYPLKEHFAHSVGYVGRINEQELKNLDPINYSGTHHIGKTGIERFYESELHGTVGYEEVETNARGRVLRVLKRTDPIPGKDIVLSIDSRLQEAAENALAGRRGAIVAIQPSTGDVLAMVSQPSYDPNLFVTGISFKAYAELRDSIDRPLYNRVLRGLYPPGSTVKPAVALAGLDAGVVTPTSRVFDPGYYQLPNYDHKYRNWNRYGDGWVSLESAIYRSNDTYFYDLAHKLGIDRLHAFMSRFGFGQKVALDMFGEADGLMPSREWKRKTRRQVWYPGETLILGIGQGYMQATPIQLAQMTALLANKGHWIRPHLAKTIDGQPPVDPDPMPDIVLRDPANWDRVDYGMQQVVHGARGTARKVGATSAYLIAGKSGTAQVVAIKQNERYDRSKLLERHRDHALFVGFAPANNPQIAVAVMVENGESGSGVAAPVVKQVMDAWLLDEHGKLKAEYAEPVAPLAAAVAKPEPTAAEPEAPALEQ
Chain of PBP2 (Klebsiella pneumoniae, UniProt A6T696) (A6T696 entry or part of it): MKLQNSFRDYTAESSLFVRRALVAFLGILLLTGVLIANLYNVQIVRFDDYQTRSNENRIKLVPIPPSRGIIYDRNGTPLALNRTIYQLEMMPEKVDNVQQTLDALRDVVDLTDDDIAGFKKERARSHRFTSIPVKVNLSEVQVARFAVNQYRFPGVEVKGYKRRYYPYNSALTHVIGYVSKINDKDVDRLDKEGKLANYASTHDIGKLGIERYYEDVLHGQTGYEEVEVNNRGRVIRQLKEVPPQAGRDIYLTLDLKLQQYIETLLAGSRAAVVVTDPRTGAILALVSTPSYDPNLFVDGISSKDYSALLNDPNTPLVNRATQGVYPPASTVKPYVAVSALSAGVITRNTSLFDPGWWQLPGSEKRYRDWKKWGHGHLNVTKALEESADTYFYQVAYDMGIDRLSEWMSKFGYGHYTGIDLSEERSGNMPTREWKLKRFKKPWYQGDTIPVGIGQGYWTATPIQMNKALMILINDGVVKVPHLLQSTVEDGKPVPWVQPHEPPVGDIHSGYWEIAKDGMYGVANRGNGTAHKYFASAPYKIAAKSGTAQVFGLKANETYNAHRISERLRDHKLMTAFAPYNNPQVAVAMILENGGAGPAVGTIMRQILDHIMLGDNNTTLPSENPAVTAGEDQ
Chain of PBP1a (Klebsiella pneumoniae, UniProt A0A0H3GZF1) (A0A0H3GZF1 entry or part of it): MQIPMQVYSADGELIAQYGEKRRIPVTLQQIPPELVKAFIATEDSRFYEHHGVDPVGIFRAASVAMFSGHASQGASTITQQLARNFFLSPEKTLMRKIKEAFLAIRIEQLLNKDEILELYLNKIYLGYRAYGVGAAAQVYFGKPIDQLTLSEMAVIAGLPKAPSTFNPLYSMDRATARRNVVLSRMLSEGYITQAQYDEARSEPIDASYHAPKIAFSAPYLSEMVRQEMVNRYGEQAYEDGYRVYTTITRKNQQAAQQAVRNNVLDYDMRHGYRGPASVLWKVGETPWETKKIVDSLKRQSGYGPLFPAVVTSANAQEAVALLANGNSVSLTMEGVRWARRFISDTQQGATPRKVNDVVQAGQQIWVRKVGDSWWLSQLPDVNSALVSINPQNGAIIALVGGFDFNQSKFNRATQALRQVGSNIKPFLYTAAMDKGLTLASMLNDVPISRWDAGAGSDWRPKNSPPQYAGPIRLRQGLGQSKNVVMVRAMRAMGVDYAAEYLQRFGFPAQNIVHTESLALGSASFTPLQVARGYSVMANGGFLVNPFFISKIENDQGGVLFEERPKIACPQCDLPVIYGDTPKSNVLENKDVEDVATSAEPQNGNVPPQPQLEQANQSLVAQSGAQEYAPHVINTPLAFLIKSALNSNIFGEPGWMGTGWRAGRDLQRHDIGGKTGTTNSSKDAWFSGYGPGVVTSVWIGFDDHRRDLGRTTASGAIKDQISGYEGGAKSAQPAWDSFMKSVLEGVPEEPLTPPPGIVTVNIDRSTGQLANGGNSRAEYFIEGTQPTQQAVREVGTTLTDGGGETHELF
T3 sequence (G3XD46 whole entry): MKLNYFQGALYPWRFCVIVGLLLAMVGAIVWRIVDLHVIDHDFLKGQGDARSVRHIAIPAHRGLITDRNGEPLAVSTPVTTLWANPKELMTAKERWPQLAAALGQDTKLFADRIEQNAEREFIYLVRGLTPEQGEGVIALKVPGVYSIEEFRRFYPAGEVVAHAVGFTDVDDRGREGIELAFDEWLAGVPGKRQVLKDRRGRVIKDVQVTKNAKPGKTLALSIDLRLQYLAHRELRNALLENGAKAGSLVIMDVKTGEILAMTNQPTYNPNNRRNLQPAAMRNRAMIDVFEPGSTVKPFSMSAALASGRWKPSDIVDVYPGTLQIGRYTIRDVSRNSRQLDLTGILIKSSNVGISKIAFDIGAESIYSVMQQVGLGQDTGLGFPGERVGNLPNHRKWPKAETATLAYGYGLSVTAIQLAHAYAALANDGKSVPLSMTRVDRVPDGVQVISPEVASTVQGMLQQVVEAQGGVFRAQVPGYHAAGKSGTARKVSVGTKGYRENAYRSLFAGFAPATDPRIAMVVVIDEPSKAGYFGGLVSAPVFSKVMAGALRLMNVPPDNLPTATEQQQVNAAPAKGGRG
Chain of PBP3 (Acinetobacter baumannii, UniProt A0ABX6CK25) (A0ABX6CK25 entry or part of it): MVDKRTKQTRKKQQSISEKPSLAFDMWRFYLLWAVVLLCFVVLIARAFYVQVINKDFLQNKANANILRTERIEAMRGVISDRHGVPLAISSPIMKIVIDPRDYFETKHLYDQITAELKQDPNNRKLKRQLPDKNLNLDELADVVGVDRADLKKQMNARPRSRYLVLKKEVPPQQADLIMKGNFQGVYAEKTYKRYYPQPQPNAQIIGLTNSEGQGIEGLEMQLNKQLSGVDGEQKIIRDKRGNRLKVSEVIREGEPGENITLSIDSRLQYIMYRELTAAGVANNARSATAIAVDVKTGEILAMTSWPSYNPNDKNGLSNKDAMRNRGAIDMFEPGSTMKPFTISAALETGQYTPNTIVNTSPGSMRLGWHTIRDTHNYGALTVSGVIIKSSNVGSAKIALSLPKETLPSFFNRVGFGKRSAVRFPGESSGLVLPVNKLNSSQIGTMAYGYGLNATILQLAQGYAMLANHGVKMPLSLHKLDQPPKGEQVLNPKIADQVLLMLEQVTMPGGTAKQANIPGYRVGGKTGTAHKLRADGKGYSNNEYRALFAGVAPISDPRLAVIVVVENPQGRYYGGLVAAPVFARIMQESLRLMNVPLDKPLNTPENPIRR
Chain of PBP3 (Klebsiella pneumoniae, UniProt A0A0H3GN85) (A0A0H3GN85 entry or part of it): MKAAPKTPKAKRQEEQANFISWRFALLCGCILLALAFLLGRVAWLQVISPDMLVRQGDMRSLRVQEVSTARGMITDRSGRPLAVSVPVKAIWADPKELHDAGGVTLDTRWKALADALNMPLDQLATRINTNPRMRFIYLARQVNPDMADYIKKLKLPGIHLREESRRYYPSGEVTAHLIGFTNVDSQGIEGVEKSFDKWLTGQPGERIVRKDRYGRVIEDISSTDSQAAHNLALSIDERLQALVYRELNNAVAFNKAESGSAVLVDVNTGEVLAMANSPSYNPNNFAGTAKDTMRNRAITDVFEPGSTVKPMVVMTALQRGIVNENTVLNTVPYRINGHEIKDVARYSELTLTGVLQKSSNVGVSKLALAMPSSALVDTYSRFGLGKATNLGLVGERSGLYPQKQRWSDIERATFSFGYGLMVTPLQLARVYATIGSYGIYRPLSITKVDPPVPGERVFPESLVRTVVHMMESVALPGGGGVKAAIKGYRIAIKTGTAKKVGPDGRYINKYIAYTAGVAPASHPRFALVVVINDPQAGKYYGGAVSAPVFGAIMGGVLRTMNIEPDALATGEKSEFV

Structure (SMILES)	IC50 [1] [nM]	IC50 [2] [µM]	IC50 [3] [nM]	IC50 [4] [nM]	IC50 [5] [nM]	IC50 [6] [nM]	IC50 [7] [nM]	MBC [8] [µg/mL]	IC50 [9] [µM]	IC50 [10] [µM]	frequency of resistance (FOR) [11]	frequency of resistance (FOR) [12]	cellular morphology [13]
C[C@@H](O)[C@H]1C(=O)N2C(C(=O)O)=C(S[C@@H]3CN[C@H](C(=O)N(C)C)C3)[C@H](C)[C@H]12 [Meropenem]	170	5.2	< 20	310	330	500	50						
O=C(O)c1c(F)ccc2c1OB(O)[C@@H]1C[C@H]21 [Xeruborbactam]								8 (≈ 36 µM)	370 ± 120	510 ± 120	< 2 × 10^−9	< 2 × 10^−9	filamentation and bulge formation at midcell and eventual cell lysis from the midpoint
